Key:
[1] = target: KHK-C expressed in NRK-52E cells (Homo sapiens (Human), UniProt P50053); test: KHK-C Cell-based Assay (EC50), NRK CTG, fructose-mediated ATP-depletion
Method: Compounds were tested in a high-throughput 384-well assay format for their ability to attenuate fructose-mediated ATP-depletion in Normal Rat Kidney epithelial cells (NRK-52E) using the Cell-Titer Glo (CTG) assay, which measures cellular ATP levels based on luminescence signal by using the luciferase-luciferin system. Compounds were serially diluted (1:3) in DMSO.
The plates were incubated at 37° C., 5% CO2 for one day. Cells were then transduced on day 2 with 200 MOI of Adenovirus (VQAd KHKC C-(K)-DYK ViraQuest Inc.) using the same medium and method as day-1 to induce KHK-C expression in the cells. Cells were incubated at 37° C., 5% CO2 for one day. On day-3, the medium was changed to DMEM medium (Corning, Catalog #10-014-CM) with 0.5% FBS and Penicillin-Streptomycin after washing the cells twice with sterile PBS on the BioTEK EL406 washer and dispenser. Test compounds were then diluted 200-fold into the assay plates using the BioMek FX and were incubated for 1 hour at 37° C., 5% CO2. 25 mM (final concentration) of fructose was then dispensed into the plates using the BioTEK EL406 dispenser and the plates were incubated at 37° C., 5% CO2 for 48 hours before addition of CTG reagent and measurement of luminescence signal.

[2] = target: human KHK-C (Homo sapiens (Human), UniProt P50053); test: KHK Biochemical Assay (IC50), ADP-Glo, KHK-C; settings: average of at least two separate assays
Method in brief: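 His-tagged enzyme expressed in BL21 (DE3), Ni-NTA purified. Compounds, serially diluted 1:3 in DMSO, pre-incubated 30 min with enzyme in 50 mM Hepes pH 7.4, 140 mM KCl, 5 mM MgCl2, 0.01% Triton-X, then ATP and fructose added; 4 h at room temperature. ADP formation read by ADP-Glo luminescence.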

human KHK-C, sequence (P50053 whole entry): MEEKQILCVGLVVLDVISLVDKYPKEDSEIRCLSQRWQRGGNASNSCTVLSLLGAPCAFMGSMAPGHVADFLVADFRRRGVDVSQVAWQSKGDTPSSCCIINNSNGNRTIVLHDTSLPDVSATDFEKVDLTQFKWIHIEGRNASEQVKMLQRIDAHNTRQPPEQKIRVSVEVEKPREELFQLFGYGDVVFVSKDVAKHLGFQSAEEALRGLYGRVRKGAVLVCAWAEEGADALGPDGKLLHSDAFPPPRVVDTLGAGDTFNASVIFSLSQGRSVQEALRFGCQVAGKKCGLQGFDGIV
KHK-C expressed in NRK-52E cells, sequence (P50053 whole entry): as above

Row | EC50 [1] | IC50 [2] | SMILES
1 | 26.7 nM | 5 nM | C[C@H]1[C@H](O)CN1c1nc(-c2ccc(C3(N)COC3)c(F)c2)c2c(n1)C(F)(F)CC2 [Example 503, (2S,3R)-1-(4-(4-(3-aminooxetan-3-yl)-3-fluorophenyl)-7,7-difluoro-6,7-dihydro-5H-cyclopenta[d]pyrimidin-2-yl)-2-methylazetidin-3-ol]
2 | 11.9 nM | 2.4 nM | Cc1cc(-c2nc(N3C[C@@H](O)[C@@H]3C)nc3c2CCC3(F)F)ccc1C1(N)COC1 [Example 505, (2S,3R)-1-(4-(4-(3-aminooxetan-3-yl)-3-methylphenyl)-7,7-difluoro-6,7-dihydro-5H-cyclopenta[d]pyrimidin-2-yl)-2-methylazetidin-3-ol]
3 | > 5000 nM | > 5000 nM | C[C@H]1[C@H](O)CN1c1nc(-c2ccc(C3(N)COC3)nc2)c2c(n1)C(F)(F)CC2 [Example 506, (2S,3R)-1-(4-(6-(3-aminooxetan-3-yl)pyridin-3-yl)-7,7-difluoro-6,7-dihydro-5H-cyclopenta[d]pyrimidin-2-yl)-2-methylazetidin-3-ol]
4 | 125 nM | 13.6 nM | C[C@H]1[C@H](O)CN1c1nc(-c2ccc3c(c2)C(=O)N(C)CC3)c2c(n1)C(F)(F)CC2 [Example 600, 7-(7,7-difluoro-2-((2S,3R)-3-hydroxy-2-methylazetidin-1-yl)-6,7-dihydro-5H-cyclopenta[d]pyrimidin-4-yl)-2-methyl-3,4-dihydroisoquinolin-1(2H)-one]
5 | > 5000 nM | 95.1 nM | C[C@H]1[C@H](O)CN1c1nc2c(c(-c3ccc4c(c3)S(=O)(=O)CNC4=O)n1)CCC2 [Example 601, 7-(2-((2S,3R)-3-hydroxy-2-methylazetidin-1-yl)-6,7-dihydro-5H-cyclopenta[d]pyrimidin-4-yl)-2,3-dihydro-4H-benzo[e][1,3]thiazin-4-one 1,1-dioxide]
6 | 150 nM | 96.8 nM | C[C@H]1CCN1c1nc2c(c(-c3ccc4c(c3)CN(S(=O)(=O)CCO)CC4)n1)CCC2 [Example 605]
7 | 610 nM | 80.7 nM | C[C@H]1[C@H](O)CN1c1nc2c(c(-c3cccc(CNS(=O)(=O)C4CC4)c3)n1)CCC2 [Example 610]
8 | 92 nM | 32 nM | C[C@H]1[C@H](O)CN1c1nc(-c2ccc3c(c2)CN(S(C)(=O)=O)CC3)c2c(n1)C(F)(F)CC2 [Example 611, (2S,3R)-1-(7,7-difluoro-4-(2-(methylsulfonyl)-1,2,3,4-tetrahydroisoquinolin-7-yl)-6,7-dihydro-5H-cyclopenta[d]pyrimidin-2-yl)-2-methylazetidin-3-ol]
9 | 1.2 nM | 0.2 nM | CN1C(=O)N[C@]2(CCc3cc(-c4nc(N5CC[C@@H]5CF)nc5c4CCC5(F)F)ccc32)C1=O [Example 676, (5S)-5′-[7,7-difluoro-2-[(2R)-2-(fluoromethyl)azetidin-1-yl]-5,6-dihydroeyelopenta[d]pyrimidin-4-yl]-3-methyl-spiro[imidazolidine-5,1′-indane]-2,4-dione]
10 | 2.1 nM | 0.2 nM | CCN1C(=O)N[C@]2(CCc3cc(-c4nc(N5C[C@@H](O)[C@@H]5C)nc5c4CCC5(F)F)ccc32)C1=O [Example 685, (58)-5′-[7,7-difluoro-2-[(2S,3R)-3-hydroxy-2-methyl-azetidin-1-yl]-5,6-dihydrocyclopenta[d]pyrimidin-4-yl]-3-ethyl-spiro[imidazolidine-5,1′-indane]-2,4-dione]
11 | 1330 nM | 254 nM | C[C@H]1CCN1c1nc2c(c(-c3cn(C4COC4)nn3)n1)CCC2 [Example 704, 2-[(2S)-2-methylazetidin-1-yl]-4-[1-(oxetan-3-yl)triazol-4-yl]-6,7-dihydro-5H-cyclopenta[d]pyrimidine]
12 | 366 nM | 67.2 nM | N#CC1CCN1c1nc(-c2ccc(C(N)=O)cc2)c2c(n1)C(F)(F)CC2 (stereo not drawn) [Example 706, 4-(2-(2-cyanoazetidin-1-yl)-7,7-difluoro-6,7-dihydro-5H-cyclopenta[d]pyrimidin-4-yl)benzamide]
13 | 330 nM | 43.4 nM | N#C[C@H]1CCN1c1nc(-c2ccc(C(N)=O)cc2)c2c(n1)C(F)(F)CC2 [Example 707, (R)-4-(2-(2-cyanoazetidin-1-yl)-7,7-difluoro-6,7-dihydro-5H-cyclopenta[d]pyrimidin-4-yl)benzamide]
14 | > 5000 nM | > 5000 nM | N#CC1CN(c2nc(-c3ccc(C(N)=O)cc3)c3c(n2)C(F)(F)CC3)C1 [Example 708, 4-(2-(3-cyanoazetidin-1-yl)-7,7-difluoro-6,7-dihydro-5H-cyclopenta[d]pyrimidin-4-yl)benzamide]
15 | > 5000 nM | > 5000 nM | CS(=O)(=O)c1cccc(-c2nc(N3CCC[C@H]3C#N)nc3c2CCC3)c1 [Example 712, (S)-1-(4-(3-(methylsulfonyl)phenyl)-6,7-dihydro-5H-cyclopenta[d]pyrimidin-2-yl)pyrrolidine-2-carbonitrile]
16 | 4900 nM | 2340 nM | CS(=O)(=O)c1cccc(-c2nc(N3CCC[C@@H]3C#N)nc3c2CCC3)c1 [Example 713, (R)-1-(4-(3-(methylsulfonyl)phenyl)-6,7-dihydro-5H-cyclopenta[d]pyrimidin-2-yl)pyrrolidine-2-carbonitrile]
17 | > 5000 nM | > 5000 nM | CC1(C#N)CCN1c1nc2c(c(-c3cccc(S(C)(=O)=O)c3)n1)CCC2 (stereo not drawn) [Example 714, 2-methyl-1-(4-(3-(methylsulfonyl)phenyl)-6,7-dihydro-5H-cyclopenta[d]pyrimidin-2-yl)azetidine-2-carbonitrile]
18 | 52.1 nM | 22.2 nM | C[C@H]1CCN1c1nc2c(c(-c3ccc4nc(N)oc4c3)n1)CCC2 [Example 728, (S)-6-(2-(2-methylazetidin-1-yl)-6,7-dihydro-5H-cyclopenta[d]pyrimidin-4-yl)benzo[d]oxazol-2-amine]
19 | 5000 nM | 2390 nM | NC(=O)c1ccc(-c2nc(N3CCC34COC4)nc3c2CCC3)cc1 [Example 730, 4-(2-(6-oxa-1-azaspiro[3.3]heptan-1-yl)-6,7-dihydro-5H-cyclopenta[d]pyrimidin-4-yl)benzamide]
20 | 250 nM | 5.2 nM | C[C@H]1CCN1c1nc2c(c(-c3ccc4[nH]c(N)nc4c3)n1)CCC2 [Example 731, (S)-5-(2-(2-methylazetidin-1-yl)-6,7-dihydro-5H-cyclopenta[d]pyrimidin-4-yl)-1H-benzo[d]imidazol-2-amine]
21 | 361 nM | 87.9 nM | C[C@H]1CCN1c1nc2c(c(-c3cnc(N)nc3)n1)CCC2 [Example 732, (S)-5-(2-(2-methylazetidin-1-yl)-6,7-dihydro-5H-cyclopenta[d]pyrimidin-4-yl)pyrimidin-2-amine]
22 | 124 nM | 49.8 nM | C[C@H]1CCN1c1nc2c(c(-c3ccc4sc(N)nc4c3)n1)CCC2 [Example 733, (S)-5-(2-(2-methylazetidin-1-yl)-6,7-dihydro-5H-cyclopenta[d]pyrimidin-4-yl)benzo[d]thiazol-2-amine]
23 | 91.1 nM | 72.3 nM | C[C@H]1CCN1c1nc2c(c(-c3ccc4nc(N)sc4c3)n1)CCC2 [Example 734, (S)-6-(2-(2-methylazetidin-1-yl)-6,7-dihydro-5H-cyclopenta[d]pyrimidin-4-yl)benzo[d]thiazol-2-amine]
24 | 34.9 nM | 21 nM | C[C@H]1CCN1c1nc2c(c(-c3ccc4oc(N)nc4c3)n1)CCC2 [Example 736, (S)-5-(2-(2-methylazetidin-1-yl)-6,7-dihydro-5H-cyclopenta[d]pyrimidin-4-yl)benzo[d]oxazol-2-amine]
25 | 242 nM | 9.7 nM | C[C@H]1[C@H](O)CN1c1nc(-c2ccc(C(=O)NCC#N)cc2)c2c(n1)C(F)(F)CC2 [Example 737, N-(cyanomethyl)-4-(7,7-difluoro-2-((2S,3R)-3-hydroxy-2-methylazetidin-1-yl)-6,7-dihydro-5H-cyclopenta[d]pyrimidin-4-yl)benzamide]
26 | 215 nM | 38.4 nM | C[C@H]1[C@H](O)CN1c1nc2c(c(-c3cc4c(c(S(N)(=O)=O)c3)OCC4)n1)CCC2 [Example 739, 5-(2-((2S,3R)-3-hydroxy-2-methylazetidin-1-yl)-6,7-dihydro-5H-cyclopenta[d]pyrimidin-4-yl)-2,3-dihydrobenzofuran-7-sulfonamide]
27 | 323 nM | 40.3 nM | C[C@@H](NS(C)(=O)=O)c1ccc(-c2nc(N3C[C@@H](O)[C@@H]3C)nc3c2CCC3(F)F)cc1 [Example 740, N-[(1R)-1-[4-[7,7-difluoro-2-[(2S,3R)-3-hydroxy-2-methyl-azetidin-1-yl]-5,6-dihydrocyclopenta[d]pyrimidin-4-yl]phenyl]ethyl]methanesulfonamide]
28 | 224 nM | 24.9 nM | C[C@@H](NS(C)(=O)=O)c1cccc(-c2nc(N3C[C@@H](O)[C@@H]3C)nc3c2CCC3(F)F)c1 [Example 741, N-[(1R)-1-[3-[7,7-difluoro-2-[(2S,3R)-3-hydroxy-2-methyl-azetidin-1-yl]-5,6-dihydrocyclopenta[d]pyrimidin-4-yl]phenyl]ethyl]methanesulfonamide]
29 | 4.1 nM | 1.3 nM | C[C@H]1CCN1c1nc(-c2cc3c(c(S(N)(=O)=O)c2)OCC3)c2c(n1)C(F)(F)CC2 [Example 742, 5-[7,7-difluoro-2-[(2S)-2-methylazetidin-1-yl]-5,6-dihydrocyclopenta[d]pyrimidin-4-yl]-2,3-dihydrobenzofuran-7-sulfonamide]
30 | 1680 nM | 1020 nM | C[C@H]1CCN1c1nc2c(c(-c3ccc(C4(NS(C)(=O)=O)CCC4)cc3)n1)CCC2 [Example 743, N-[1-[4-[2-[(2S)-2-methylazetidin-1-yl]-6,7-dihydro-5H-cyclopenta[d]pyrimidin-4-yl]phenyl]cyclobutyl]methanesulfonamide]

Source: patent US12410160B2 (Gilead Sciences, Inc., priority 2021, dated 2025)
